Laboratory results: patent US20250000989A1, “PYRROLO BENZODIAZEPINE DERIVATIVE, AND CONJUGATE, PREPARATION METHOD AND USE THEREOF” (priority 2021, published 2025)

Assays:
Test in all cases: Inhibition of in vitro proliferation of tumor cells by PBD compounds (CTG)
Type in all cases: cell-based
[1] = system: MKN45 (human gastric cancer cells); conditions: MKN-45, 144 h, 6 days of culture
Experimental: (§1) The objective of this assay is to measure the activity of the compounds of the present disclosure in inhibiting the proliferation of different tumor cell lines: SK-BR-3 tumor cells (human breast cancer cells, ATCC, Cat. No. HTB-30), NCI-H23 (human non-small cell lung cancer cells, Nanjing Cobioer, Cat. No. CBP60132), and MKN45 (human gastric cancer cells, Nanjing Cobioer, Cat. No. CBP60488). The cells were treated in vitro with different concentrations of the compounds. After 6 days of culture, the proliferation of the cells was measured using CTG (CellTiter-Glo® Luminescent Cell Viability Assay, Promega, Cat. No. G7573) reagent, and the in vitro activity of the compounds was evaluated based on their IC50 values.
(§2) • 1. Cell culture: SK-BR-3, NCI-H23, and MKN45 cells were separately cultured in McCoy's 5A medium (ThermoFisher, Cat. No. 16600108) and RPMI 1640 medium (ThermoFisher, Cat. No. 11875119) containing 10% FBS (Gibco, 10099-141). • 2. Cell plating: After being digested with trypsin (0.25% Trypsin-EDTA (1×), Life Technologies, Cat. No. 25200-072), the SK-BR-3, NCI-H23, and MKN45 were resuspended in their respective media and counted. The density was adjusted to 1.48×10^4 cells/mL, and the cells were plated onto 96-well plates (corning, Cat. No. 3903) at 135 μL/well, i.e., 2000 cells/well, and cultured at 37° C. for 24 h. • 3. Drug formulation: PBD drugs were formulated in round-bottom 96-well plates. Plate 1: In the first column, the concentration was 0.05 mM; in the second column through the fourth column, a 3-fold serial dilution was performed in DMSO; in the fifth column through the sixth column, a 5-fold serial dilution was performed in DMSO; in the seventh column through the ninth column, a 10-fold serial dilution was performed in DMSO; and the tenth column contained DMSO. Plate 2: Corresponding media were added to the first column through the tenth column at 196 μL/well; 4 μL of solution was transferred from each well of the first column through the tenth column of plate 1 to plate 2 and well mixed with the medium; 15 μL of the mixture was added to the cells plated the day before, and the cells were cultured at 37° C. for another 6 days. • 4. CTG assay: The cell culture plates were taken out and equilibrated to room temperature. CTG was added at 75 μL/well, and the plates were incubated at room temperature in the dark for 10 min. Then luminescence values were measured on a microplate reader (BMG labtech, PHERAstar FS).

[2] = system: NCI-H23 (human non-small cell lung cancer cells); conditions: 144 h, 6 days of culture
Experimental: as §1, §2

[3] = system: SK-BR-3 tumor cells (human breast cancer cells); conditions: 144 h, 6 days of culture
Experimental: as §1, §2

| Compound | IC50 [1] [pM] | IC50 [2] [pM] | IC50 [3] [pM] |
| --- | --- | --- | --- |
| COc1cc2c(cc1OCCCCCOc1cc3c(cc1OC1CC1)C(=O)N1CC4(CC4)C[C@H]1C=N3)NC[C@@H]1CC(c3ccc(C4CCOCC4)cc3)=CN1C2=O [2-39, (S)-7-Cyclopropoxy-8-((5-(((S)-7-methoxy-5-oxo-2-(4-(tetrahydro-2H-pyran-4-yl)phenyl)-5,10,11,11a-tetrahydro-1H-benzo[e]pyrrolo[1,2-a][1,4]diazepin-8-yl)oxy)pentyl)oxy)-1,11a-dihydro-3H,5H-spiro[benzo[e]pyrrolo[1,2-a][1,4]diazepine-2,1′-cyclopropan]-5-one] | 840 | 390 | 580 |
| COc1ccc(C2=CN3C(=O)c4cc(OC)c(OCc5cncc(COc6cc7c(cc6OC)C(=O)N6CC8(CC8)C[C@H]6C=N7)c5)cc4NC[C@@H]3C2)cc1 [2-29] | 20 | 20 | 80 |
| COc1ccc(C2=CN3C(=O)c4cc(OC)c(OCCCCCOc5cc6c(cc5OC5CC5)C(=O)N5CC7(CC7)C[C@H]5C=N6)cc4NC[C@@H]3C2)cc1 [2-16, (S)-7-Cyclopropoxy-8-((5-(((S)-7-methoxy-2-(4-methoxyphenyl)-5-oxo-5,10,11,11a-tetrahydro-1H-benzo[e]pyrrolo[1,2-a][1,4]diazepin-8-yl)oxy)pentyl)oxy)-1,11a-dihydro-3H,5H-spiro[benzo[e]pyrrolo[1,2-a][1,4]diazepine-2,1′-cyclopropan]-5-one] | 260 | 180 | 360 |
| COc1cc2c(cc1OCCCCCOc1cc3c(cc1OC)C(=O)N1C=C(c4ccc(C5CCOCC5)cc4)C[C@H]1CN3)N=C[C@@H]1CC3(CC3)CN1C2=O [2-5, (S)-7-Methoxy-8-((5-(((S)-7-methoxy-5-oxo-2-(4-(tetrahydro-2H-pyran-4-yl)phenyl)-5,10,11,11a-tetrahydro-1H-benzo[e]pyrrolo[1,2-a][1,4]diazepin-8-yl)oxy)pentyl)oxy)-1,11a-dihydro-3H,5H-spiro[benzo[e]pyrrolo[1,2-a][1,4]diazepine-2,1′-cyclopropan]-5-one] | 910 | 410 | 1840 |
| COc1cc2c(cc1OCCCCCOc1cc3c(cc1OC)C(=O)N1C=C(c4ccc(N5CCN(C[C@@H](O)CO)CC5)cc4)C[C@H]1CN3)N=C[C@@H]1CC3(CC3)CN1C2=O [2-31, (S)-8-((5-(((S)-2-(4-(4-((R)-2,3-Dihydroxypropyl)piperazin-1-yl)phenyl)-7-methoxy-5-oxo-5,10,11,11a-tetrahydro-1H-benzo[e]pyrrolo[1,2-a][1,4]diazepin-8-yl)oxy)pentyl)oxy)-7-methoxy-1,11a-dihydro-3H,5H-spiro[benzo[e]pyrrolo[1,2-a][1,4]diazepine-2,1′-cyclopropan]-5-one] | 100 | 80 | 370 |
| COc1cc2c(cc1OCCCCCOc1cc3c(cc1OC)C(=O)N1C=C(c4ccc(N5CCN(C[C@H](O)CO)CC5)cc4)C[C@H]1CN3)N=C[C@@H]1CC3(CC3)CN1C2=O [2-33, (S)-8-((5-(((S)-2-(4-(4-((S)-2,3-Dihydroxypropyl)piperazin-1-yl)phenyl)-7-methoxy-5-oxo-5,10,11,11a-tetrahydro-1H-benzo[e]pyrrolo[1,2-a][1,4]diazepin-8-yl)oxy)pentyl)oxy)-7-methoxy-1,11a-dihydro-3H,5H-spiro[benzo[e]pyrrolo[1,2-a][1,4]diazepine-2,1′-cyclopropan]-5-one] | 380 | 300 | 730 |
| COc1cc2c(cc1OCCCCCOc1cc3c(cc1OC)C(=O)N1C=C(c4ccc(-n5nccn5)cc4)C[C@H]1CN3)N=C[C@@H]1CC3(CC3)CN1C2=O [2-7, (S)-8-((5-(((S)-2-(4-(2H-1,2,3-Triazol-2-yl)phenyl)-7-methoxy-5-oxo-5,10,11,11a-tetrahydro-1H-benzo[e]pyrrolo[1,2-a][1,4]diazepin-8-yl)oxy)pentyl)oxy)-7-methoxy-1,11a-dihydro-3H,5H-spiro[benzo[e]pyrrolo[1,2-a][1,4]diazepine-2,1′-cyclopropan]-5-one] | 70 | 40 | 80 |
| COc1cc2c(cc1OCCCCCOc1cc3c(cc1OC)C(=O)N1C=C(c4ccc(-n5cccn5)cc4)C[C@H]1CN3)N=C[C@@H]1CC3(CC3)CN1C2=O [2-4, (S)-8-((5-(((S)-2-(4-(1H-Pyrazol-1-yl)phenyl)-7-methoxy-5-oxo-5,10,11,11a-tetrahydro-1H-benzo[e]pyrrolo[1,2-a][1,4]diazepin-8-yl)oxy)pentyl)oxy)-7-methoxy-1,11a-dihydro-3H,5H-spiro[benzo[e]pyrrolo[1,2-a][1,4]diazepine-2,1′-cyclopropan]-5-one] | 1450 | 340 | 710 |
| COc1cc2c(cc1OCCCCCOc1cc3c(cc1OC)C(=O)N1C=C(c4ccc(SCC5CC5)cc4)C[C@H]1CN3)N=C[C@@H]1CC3(CC3)CN1C2=O [2-34, (S)-8-((5-(((S)-2-(4-((Cyclopropylmethyl)thio)phenyl)-7-methoxy-5-oxo-5,10,11,11a-tetrahydro-1H-benzo[e]pyrrolo[1,2-a][1,4]diazepin-8-yl)oxy)pentyl)oxy)-7-methoxy-1,11a-dihydro-3H,5H-spiro[benzo[e]pyrrolo[1,2-a][1,4]diazepine-2,1′-cyclopropan]-5-one] | 1370 | 620 | 1420 |
| COc1ccc(C2=CN3C(=O)c4cc(OC)c(OCC5(CCCOc6cc7c(cc6OC)C(=O)N6CC8(CC8)C[C@H]6C=N7)CC5)cc4NC[C@@H]3C2)cc1 [2-13, (S)-7-Methoxy-8-(3-(1-((((S)-7-methoxy-2-(4-methoxyphenyl)-5-oxo-5,10,11,11a-tetrahydro-1H-benzo[e]pyrrolo[1,2-a][1,4]diazepin-8-yl)oxy)methyl)cyclopropyl)propoxy)-1,11a-dihydro-3H,5H-spiro[benzo[e]pyrrolo[1,2-a][1,4]diazepine-2,1′-cyclopropan]-5-one] | 4350 | 1420 | 1640 |
| COc1ccc(C2=CN3C(=O)c4cc(OC)c(OCCCCCOc5cc6c(cc5OC)C(=O)N5CC7(CC7)C[C@H]5C=N6)cc4NC(=O)[C@@H]3C2)cc1 [2-22, (S)-7-Methoxy-8-((5-(((S)-7-methoxy-5-oxo-5,11a-dihydro-1H,3H-spiro[benzo[e]pyrrolo[1,2-a][1,4]diazepine-2,1′-cyclopropan]-8-yl)oxy)pentyl)oxy)-2-(4-methoxyphenyl)-1,11a-dihydro-5H-benzo[e]pyrrolo[1,2-a][1,4]diazepine-5,11(10H)-dione] | 170 | 80 | 260 |
| COc1cc2c(cc1OCCCCCOc1cc3c(cc1OC)C(=O)N1C=C(c4ccc(N5CCOCC5)cc4)C[C@H]1CN3)N=C[C@@H]1CC3(CC3)CN1C2=O [2-2, (S)-7-Methoxy-8-((5-(((S)-7-methoxy-2-(4-morpholinylphenyl)-5-oxo-5,10,11,11a-tetrahydro-1H-benzo[e]pyrrolo[1,2-a][1,4]diazepin-8-yl)oxy)pentyl)oxy)-1,11a-dihydro-3H,5H-spiro[benzo[e]pyrrolo[1,2-a][1,4]diazepine-2,1′-cyclopropan]-5-one] | 90 | 20 | 50 |
| COc1cc2c(cc1OCCCCCOc1cc3c(cc1OC)C(=O)N1C=C(c4ccc(SC5CC5)cc4)C[C@H]1CN3)N=C[C@@H]1CC3(CC3)CN1C2=O [2-3] | 490 | 50 | 200 |
